Patent US10160705B2, “Class of HDAC inhibitors expands the renal progenitor cells population and improves the rate of recovery from acute kidney injury” (University of Pittsburgh—Of the Commonwealth System of …, priority 2011, dated 2018)
Like-named read-outs stand apart in the source and are kept apart here.

Assays:
[1] = tested on: kidney field; test: In situ hybridization for kidney markers (pax2a, pax8, cdh17, wt1a, slc4a4, slcl2a1); assay type: in vivo, zebrafish; details: in situ hybridization, data not shown
Experimental: PTBA was synthesized as described below. Hydroxyurea and aphidicolin were obtained from Sigma-Aldrich.
In situ hybridization and immunocytochemistry: In situ hybridization was performed as previously described with some modifications.142 Hybridization temperature was 65° C. Embryos were blocked in 2% blocking reagent (Roche) with 5% sheep serum in MAB (100 mM maleic acid and 150 mM NaCl [pH 7.5]). Whole-mount immunocytochemistry with 1:25 mouse anti-α6F antibody (Developmental Studies Hybridoma Bank) and 1:100 Cy3 secondary antibody (Jackson ImmunoResearch) was performed as described previously.108 Embryos were embedded in JB-4 for sectioning per the manufacturer's instructions (Polysciences), sectioned at 5 μm, and mounted with Cytoseal 60 (Richard-Allan Scientific).

[2] = tested on: zebrafish embryos; test: Phenotypic screen for edema and survival in zebrafish larvae at 72 hpf; details: for phenotype in initial chemical screen: 10 μM, larvae at 72 hpf; for Dead / Edemic 1 (E1) / Edemic 2 (E2) / Edemic 3 (E3) / Wild-type (WT): number of larvae (of 36), 3 μM from 2 hpf, scored at 72 hpf
Experimental: The screen was performed in zebrafish embryos using the National Cancer Institute's Developmental Therapeutics Program (NCI/DTP) Diversity Set I. This library contains 1990 compounds selected by pharmacophore modeling to represent the more than 140,000 small molecules maintained in the NCI/DTP Open Repository. Compounds from the NCI/DTP Diversity Set I were diluted to 10 μM in E3 embryo medium (5 mM NaCl, 0.33 mM CaCl2, 0.33 mM MgSO4, and 0.17 mM KCl) in a final DMSO concentration of 0.5% and arrayed in 96-well plates. Beginning at approximately 2 hpf, embryos were transferred to each well in groups of five using a glass pipette. The plates were incubated at 28.5° C. for 70 hours. Individual wells were then scored for a dominant phenotype, representative of at least four of the five embryos. The primary objective was to identify compounds that caused edema in treated embryos at 72 hpf. Small molecules generating edema were retested once for verification, before obtaining additional compound from the NCI/DTP Open Repository.
PTBA was synthesized as described below. Hydroxyurea and aphidicolin were obtained from Sigma-Aldrich. Groups of 20 to 30 chorionated 2 hpf embryos were arrayed in individual wells of 12-well plates. E3 medium was removed with a glass pipette and replaced with 1.5 ml treatment solutions containing 0.5% DMSO in E3 with or without compound at the reported concentrations. Treatments for all studies were initiated at 2 hpf, except for the temporal studies (FIG. 6) and the HUA studies (FIG. 11). HUA studies were performed as described previously (Zhang, L., et al. Cell cycle progression is required for zebrafish somite morphogenesis but not segmentation clock function. Development 135, 2065-2070, (2008)), with the following modifications. HUA in 0.5% DMSO was added at early gastrulation (5 hpf) and PTBA was subsequently added at late gastrulation (8 hpf) to allow for penetration of the proliferation inhibitors. All embryos were incubated at 28.5° C. until the required developmental stage.
Following 70 hours of treatment (as described above), edemic phenotypes in 72 hpf larvae were scored using a phenotype-based classification system. Wild type: no visible edema or developmental delay. […] Significant effects (p<0.05) on survival were determined by two-tailed Fisher's exact test in comparison with the 0 μM PTBA treatment group.
PTBA and methyl-4-(phenylthio)butanoate were synthesized as described above. 4-(Naphthalen-2-ylthio)butanoic acid (NSC2733) and 3-(phenylthio)benzoic acid (NSC113994), were obtained from the NCI/DTP Open Repository. APHA compound 8, Apicidin, butanoic acid, PBA, 4-phenoxybutanoic acid, 5-phenylpentanoic acid, Scriptaid, TSA, and valproic acid were obtained from Sigma-Aldrich. MS-275 and SAHA were obtained from Cayman Chemical Co. 4-(phenylsulfonyl)butanoic acid was obtained from Matrix Scientific. Tubacin was a gift of Dr. Ralph Mazitschek of the Broad Institute (Cambridge, Mass.). The remaining PTBA analogs were synthesized. Three independent groups of 12 chorionated 2 hpf embryos were arrayed in individual wells of 24-well plates. E3 medium was removed with a glass pipette and replaced with 800 μl treatment solutions containing 0.5% DMSO in E3 with or without compound at the reported concentrations.
Phenotypic screening of PTBA analogs was performed identically to the concentration-response experiments detailed above. Embryos were treated with each PTBA analog from 2 to 72 hpf as described above.

[3] = tested on: renal progenitor cells; test: In situ hybridization for lhx1a expression in 10-somite embryos (renal progenitor cell expansion); assay type: in vivo; details: for Lhx1a expansion caused by analog treatment, 200 nM: 200 nM from 2 hpf; for Lhx1a expansion caused by analog treatment, 400 nM: 400 nM from 2 hpf; for responders at 1.5 µM / responders at 0.2 µM / responders at 3 µM / responders at 0.4 µM / responders at 0.8 µM / EC50: Danio rerio; for responders at 0.4 µM: read-out: lhx1a expansion, percent of treated embryos, 400 nM from 2 hpf, 10-somite embryos; for responders at 0.8 µM: read-out: lhx1a expansion, percent of treated embryos, 800 nM from 2 hpf, 10-somite embryos; for EC50: first pass EC50 from percent expansion (Excel trendline), average where several experiments; as to Lhx1a expansion caused by analog treatment, 200 nM: key: effective (+); partially effective (+/−); ineffective (−); Analogs that killed all embryos at a given concentration before reaching 10 somites are listed as XX; as to Lhx1a expansion caused by analog treatment, 3 μM: key: effective (+); partially effective (+/−); ineffective (−); Analogs that killed all embryos at a given concentration before reaching 10 somites are listed as XX; as to Lhx1a expansion caused by analog treatment, 400 nM: key: effective (+); partially effective (+/−); ineffective (−); Analogs that killed all embryos at a given concentration before reaching 10 somites are listed as XX; as to Lhx1a expansion caused by analog treatment, 800 nM: key: effective (+); partially effective (+/−); ineffective (−); Analogs that killed all embryos at a given concentration before reaching 10 somites are listed as XX
Method in brief: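 Zebrafish embryos treated with compound, then colorimetric whole-mount in situ hybridization (65° C) for lhx1a mRNA at 10 somites. Embryos with expanded kidney field counted manually as percent of total. EC50 taken as 50% point of percent-expansion trendline; compounds also classed effective, partial or ineffective versus PTBA at matched concentration.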

[4] = 800 nM from 2 hpf, 10-somite embryos
[5] = 1.5 μM from 2 hpf, 10-somite embryos
[6] = 3 μM from 2 hpf, 10-somite embryos
[7] = 1.5 μM from 2 hpf, 10-somite embryos, read-out: lhx1a expansion, percent of treated embryos
[8] = percent of embryos with expanded kidney field, 1.5 μM, read-out: Expansion of Cells (including repeats* and recounts**) 1.5 μM
[9] = 3 μM from 2 hpf, 10-somite embryos, read-out: lhx1a expansion, percent of treated embryos

Row | Compound | Dead [2] | Edemic 1 (E1) [2] | Edemic 2 (E2) [2] | Edemic 3 (E3) [2] | Wild-type (WT) [2] | Lhx1a expansion caused by analog treatment, 3 μM [3, 6] | further results
1 | N=C(N)SCc1ccc(Cl)cc1Cl.O=[N+]([O-])c1c(O)c(Cl)cc(Cl)c1Cl [NSC35400] |  |  |  |  |  |  | size of the kidney field [1]: did not affect the size of the kidney field; phenotype in initial chemical screen [2]: pericardial edema
2 | COc1ccc(/C=C(\C#N)C(N)=O)c(OC)c1 [NSC134664] |  |  |  |  |  |  | size of the kidney field [1]: did not affect the size of the kidney field; phenotype in initial chemical screen [2]: pericardial edema
3 | N=C(N)c1ccc(N=Nc2c(O)ccc3c2[nH]c2ccccc23)cc1 [NSC357777] |  |  |  |  |  |  | size of the kidney field [1]: did not affect the size of the kidney field; phenotype in initial chemical screen [2]: pericardial edema
4 | O=C(CCCSc1ccc(F)cc1)NO [UPHD-00029, 4-[(4-fluoro-phenyl)sulfanyl]-N-hydroxybutanamide] | 28 | 0 | 0 | 8 | 0 | + | Lhx1a expansion caused by analog treatment, 200 nM ([3]; 10-somite embryos): −; Lhx1a expansion caused by analog treatment, 400 nM ([3]; 10-somite embryos): +/−; Lhx1a expansion caused by analog treatment, 800 nM [3, 4]: +; Lhx1a expansion caused by analog treatment, 1.5 μM [3, 5]: +; responders at 1.5 µM [3, 7]: 100%; responders at 0.2 µM ([3]; percent of embryos with expanded kidney field, 200 nM, read-out: Expansion of Cells (including repeats* and recounts**) 200 nM): 6%; responders at 1.5 µM [3, 8]: 100%; responders at 3 µM ([3]; percent of embryos with expanded kidney field, 3 μM, read-out: Expansion of Cells (including repeats* and recounts**) 3 μM): 100%; responders at 0.4 µM [3]: 35%; responders at 0.8 µM [3]: 60%; EC50 [3]: 1310 nM
5 | COC(=O)CCCSc1ccc(F)cc1 [UPHD-00030, methyl 4-[(4-fluoro-phenyl)sulfanyl]butanoate] | 36 | 0 | 0 | 0 | 0 |  | Lhx1a expansion caused by analog treatment, 200 nM ([3]; 10-somite embryos): +/−; Lhx1a expansion caused by analog treatment, 400 nM ([3]; 10-somite embryos): +/−; Lhx1a expansion caused by analog treatment, 800 nM [3, 4]: +; lhx1a expansion, percent of treated embryos [3, 4]: 64%; Lhx1a expansion caused by analog treatment, 1.5 μM [3, 5]: +; lethality before the 10-somite stage ([3]; 3 μM): killed all treated embryos; responders at 1.5 µM [3, 7]: 100%; responders at 1.5 µM [3, 8]: 100%; responders at 0.2 µM ([3]; read-out: lhx1a expansion, percent of treated embryos, 200 nM from 2 hpf, 10-somite embryos): 22%; responders at 0.4 µM [3]: 26%; responders at 0.8 µM [3]: 64%; EC50 [3]: 485 nM; Expansion of Cells (including repeats* and recounts**) 3 μM ([3]; percent of embryos with expanded kidney field, 3 μM): All dead
6 | CCC(C)OC(=O)CCCSc1ccccc1 (stereo not shown) [VNK-I-154] | 1 | 19 | 12 | 2 | 2 | + | Lhx1a expansion caused by analog treatment, 800 nM [3, 4]: +/−; Lhx1a expansion caused by analog treatment, 1.5 μM [3, 5]: +; responders at 1.5 µM [3, 7]: 89%
7 | COc1ccc(SCCCC(=O)NO)cc1 [VNK-I-289, 4-[(4-methoxy-phenyl)sulfanyl]-N-hydroxybutanamide] | 0 | 20 | 0 | 0 | 16 | +/− | responders at 3 µM [3, 9]: 31%
8 | COC(=O)CCCSc1ccc(Br)cc1 [VNK-I-290] | 0 | 27 | 1 | 0 | 8 | +/− | responders at 3 µM [3, 9]: 74%
9 | O=C(CCCSc1ccc(Br)cc1)NO [VNK-I-292, 4-[(4-bromo-phenyl)sulfanyl]-N-hydroxybutanamide] | 0 | 23 | 12 | 0 | 1 | + | Lhx1a expansion caused by analog treatment, 1.5 μM [3, 5]: +/−; responders at 1.5 µM [3, 7]: 47%
10 | O=C(O)CCCNc1ccccc1 [VNK-I-300, 4-(phenylamino)butanoic acid] | 0 | 1 | 0 | 0 | 35 | − | 
11 | CCC(=O)CCCCC[C@@H]1NC(=O)[C@H]2CCCCN2C(=O)[C@H]([C@@H](C)CC)NC(=O)[C@H](Cc2cn(OC)c3ccccc23)NC1=O [apicidin, reference compound] | 36 | 0 | 0 | 0 | 0 |  | Lhx1a expansion caused by analog treatment, 200 nM ([3]; 10-somite embryos): −; Lhx1a expansion caused by analog treatment, 400 nM ([3]; 10-somite embryos): +/−; treated embryos killed ([3]; 800 nM): 69%; Lhx1a expansion caused by analog treatment, 800 nM [3, 4]: XX^1; embryos surviving treatment ([3]; 800 nM, n=36): 31%; lethality before the 10-somite stage ([3]; 1.5 μM): lethal; lethality before the 10-somite stage ([3]; 3 μM): killed all treated embryos; responders at 0.4 µM [3]: 22%
12 | CCCC(=O)O [butanoic acid, reference compound] | 1 | 0 | 0 | 0 | 35 | − | 
13 | CC(C)(C)OC(=O)CCCSc1ccccc1 [tert-butyl 4-(phenylthio)butanoate] | 0 | 3 | 0 | 0 | 33 | +/− | responders at 3 µM [3, 9]: 25%
14 | O=C(CCCCCCC(=O)Nc1ccc([C@H]2O[C@@H](CSc3nc(-c4ccccc4)c(-c4ccccc4)o3)C[C@@H](c3ccc(CO)cc3)O2)cc1)NO [tubacin, reference compound] | 0 | 0 | 0 | 0 | 36 | − | effect on zebrafish embryos in the phenotypic screen ([2]; 3 μM): appeared wild-type
15 | CCCC(CCC)C(=O)O [valproic acid, reference compound] | 0 | 11 | 0 | 0 | 25 | +/− | responders at 3 µM [3, 9]: 20%
